In patent US20250388605A1, “HETEROBIFUNCTIONAL COMPOUNDS AND METHODS OF TREATING DISEASE” (Halda Therapeutics OpCo, Inc., priority 2022, published 2025):

Assays:
BRD4-BD2 = target: T1, BRD4-BD2 (Homo sapiens, UniProt O60885); experiment: Binding affinity to BRD4-BD2 (bromoKdELECT assay); details: 11-point 3-fold dilution series
T1 construct: made in house; host or cells: T7 phage grown in an E. coli host derived from the BL21 strain

[1] = test system: T-Rex 293 cell line SC3 cells lacking increased expression of androgen receptor protein; experiment: Cellular growth inhibition, T-Rex 293 SC3 cells without doxycycline (no increased androgen receptor expression), CellTiter-Glo; format: cell-based; details: T-Rex 293 SC3 cells not exposed to doxycycline (no increased androgen receptor expression), 72 hours
In short: (§1)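 Doxycycline (10 ng/mL) was either included or omitted to toggle wild-type androgen receptor expression in SC3 cells, a T-Rex 293 clone, grown in stripped-serum, phenol red-free medium. After 72 hours with compound, viable cells were quantified by CellTiter-Glo 2.0.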

[2] = test system: T-Rex 293 cell line SC3 cells having increased expression of androgen receptor protein due to exposure to doxycycline; experiment: Cellular growth inhibition, T-Rex 293 SC3 cells with doxycycline (increased androgen receptor expression), CellTiter-Glo; format: cell-based; details: T-Rex 293 SC3 cells with 10 ng/mL doxycycline (increased androgen receptor expression), 72 hours, CellTiter-Glo 2.0
In short: as §1

VCaP cells = experiment: Cellular growth inhibition assay for VCaP cells, CellTiter-Glo; format: cell-based, human; details: 72 hours
In short: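 GI50 values come from four-parameter curve fits of luminescence data normalized to a zero baseline. Compound, in medium with 0.5% DMSO, was added one day after plating and left for 72 h before CellTiter-Glo 2.0 addition.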

SMILES	Kd (BRD4-BD2)	GI50 [1]	GI50 [2]	GI50 (VCaP cells; Homo sapiens)	GI50 (VCaP cells)
CN(c1ccc(Oc2cccc(N3CC(N4CCN(c5ncc(C(=O)N[C@H]6C(C)(C)[C@H](Oc7ccc(C#N)c(Cl)c7)C6(C)C)cn5)CC4)C3)c2)c(-c2cn(C)c(=O)c3[nH]ccc23)c1)S(=O)(=O)C1CC1 [Compound I-88, N-((1r, 3r)-3-(3-chloro-4-cyanophenoxy)-2,2,4,4-tetramethylcyclobutyl)-2-(4-(1-(3-(2-(6-methyl-7-oxo-6,7-dihydro-1H-pyrrolo[2,3-c]pyridin-4-yl)-4-(N-methylcyclopropanesulfonamido)phenoxy)phenyl)azetidin-3-yl)piperazin-1-yl)pyrimidine-5-carboxamide]	50 to 500 nM	> 3000 nM	< 500 nM	< 500 nM	
Cn1cc(-c2ccccc2Oc2cccc(N3CC(N4CCN(c5ncc(C(=O)N[C@H]6C(C)(C)[C@H](Oc7ccc(C#N)c(Cl)c7)C6(C)C)cn5)CC4)C3)c2)c2cc[nH]c2c1=O [Compound I-90, N-((1r, 3r)-3-(3-chloro-4-cyanophenoxy)-2,2,4,4-tetramethylcyclobutyl)-2-(4-(1-(3-(2-(6-methyl-7-oxo-6,7-dihydro-1H-pyrrolo[2,3-c]pyridin-4-yl)phenoxy)phenyl)azetidin-3-yl)piperazin-1-yl)pyrimidine-5-carboxamide]	> 2500 nM	> 3000 nM	< 500 nM	< 500 nM	
CN(c1ccc(Oc2cccc(N3CC(N4CCN(c5ncc(C(=O)N[C@H]6C(C)(C)[C@H](Oc7ccc(C#N)c(Cl)c7)C6(C)C)cn5)CC4)C3)c2F)c(-c2cn(C)c(=O)c3[nH]ccc23)c1)S(=O)(=O)C1CC1 [Compound I-91]	< 50 nM	> 3000 nM	< 500 nM	< 500 nM	
Cn1cc(-c2cc(C(C)(C)O)ccc2Oc2cccc(N3CC(N4CCN(c5ncc(C(=O)N[C@H]6C(C)(C)[C@H](Oc7ccc(C#N)c(Cl)c7)C6(C)C)cn5)CC4)C3)c2F)c2cc[nH]c2c1=O [Compound I-92, N-((1r, 3r)-3-(3-chloro-4-cyanophenoxy)-2,2,4,4-tetramethylcyclobutyl)-2-(4-(1-(2-fluoro-3-(4-(2-hydroxypropan-2-yl)-2-(6-methyl-7-oxo-6,7-dihydro-1H-pyrrolo[2,3-c]pyridin-4-yl)phenoxy)phenyl)azetidin-3-yl)piperazin-1-yl)pyrimidine-5-carboxamide]	50 to 500 nM	< 500 nM	< 500 nM	< 500 nM	
Cn1cc(-c2ccccc2Oc2cccc(N3CC(N4CCN(c5ncc(C(=O)N[C@H]6C(C)(C)[C@H](Oc7ccc(C#N)c(Cl)c7)C6(C)C)cn5)CC4)C3)c2F)c2cc[nH]c2c1=O [Compound I-94]	50 to 500 nM	> 3000 nM	< 500 nM	> 3000 nM	
Cn1cc(-c2cc(C(C)(C)O)ccc2Oc2cccc(OCCN3CCN(c4ncc(C(=O)N[C@H]5C(C)(C)[C@H](Oc6ccc(C#N)c(Cl)c6)C5(C)C)cn4)CC3)c2)c2cc[nH]c2c1=O [Compound I-96]	50 to 500 nM	< 500 nM	< 500 nM	< 500 nM	
Cn1cc(-c2ccccc2Oc2cccc(OCCN3CCN(c4ncc(C(=O)N[C@H]5C(C)(C)[C@H](Oc6ccc(C#N)c(Cl)c6)C5(C)C)cn4)CC3)c2)c2cc[nH]c2c1=O [Compound I-98]	> 2500 nM	500 to 1500 nM	< 500 nM	< 500 nM	
Cn1cc(-c2cc(C(C)(C)O)ccc2Oc2cccc(OCCN3CCN(c4ncc(C(=O)N[C@H]5C(C)(C)[C@H](Oc6ccc(C#N)c(Cl)c6)C5(C)C)cn4)CC3)c2F)c2cc[nH]c2c1=O [Compound I-99]	< 50 nM	< 500 nM	< 500 nM	< 500 nM	
Cn1cc(-c2cc(C(C)(C)O)ccc2Oc2cccc(N3CC(N4CCN(c5ncc(C(=O)N[C@H]6C(C)(C)[C@H](Oc7ccc(C#N)c(Cl)c7)C6(C)C)cn5)CC4)C3)c2)c2cc[nH]c2c1=O [Compound I-105]	< 50 nM	< 500 nM	< 500 nM	< 500 nM	
CC(C)c1ccc(Oc2cccc(OCCN3CCN(c4ncc(C(=O)NC5C(C)(C)C(Oc6ccc(C#N)c(Cl)c6)C5(C)C)cn4)CC3)c2)c(-c2cn(C)c(=O)c3[nH]ccc23)c1 (stereo not shown) [Compound I-107, N-[3-(3-chloro-4-cyano-phenoxy)-2,2,4,4-tetramethyl-cyclobutyl]-2-[4-[2-[3-[4-isopropyl-2-(6-methyl-7-oxo-1H-pyrrolo[2,3-c]pyridin-4-yl)phenoxy]phenoxy]ethyl]piperazin-1-yl]pyrimidine-5-carboxamide]	50 to 500 nM	> 3000 nM	< 500 nM	> 3000 nM	
Cn1cc(-c2cc(C(C)(C)O)ccc2Oc2cccc(CCCN3CCN(c4ncc(C(=O)N[C@H]5C(C)(C)[C@H](Oc6ccc(C#N)c(Cl)c6)C5(C)C)cn4)CC3)c2)c2cc[nH]c2c1=O [Compound I-110]	< 50 nM	< 500 nM	< 500 nM	< 500 nM	
CCS(=O)(=O)Nc1ccc(Oc2cccc(OCCOC3CCN(c4ncc(C(=O)N[C@H]5C(C)(C)[C@H](Oc6ccc(C#N)c(Cl)c6)C5(C)C)cn4)CC3)c2)c(-c2cn(C)c(=O)c3c2ccn3C)c1 [Compound I-121]	> 2500 nM	> 3000 nM	< 500 nM	< 500 nM	
CCS(=O)(=O)Nc1ccc(Oc2cccc(N3CCN(C4CN(c5ncc(C(=O)N[C@H]6C(C)(C)[C@H](Oc7ccc(C#N)c(Cl)c7)C6(C)C)cn5)C4)CC3)c2)c(-c2cn(C)c(=O)c3[nH]ccc23)c1 [Compound I-126]	< 50 nM	> 3000 nM	< 500 nM	< 500 nM	
Cn1cc(-c2ccccc2Oc2cccc(OCCOC3CCN(c4ncc(C(=O)N[C@H]5C(C)(C)[C@H](Oc6ccc(C#N)c(Cl)c6)C5(C)C)cn4)CC3)c2)c2ccn(C)c2c1=O [Compound I-137]	> 2500 nM	< 500 nM	< 500 nM	> 3000 nM	
CCS(=O)(=O)Nc1ccc(Oc2ccc(OCC3CCN(c4ncc(C(=O)N[C@H]5C(C)(C)[C@H](Oc6ccc(C#N)c(Cl)c6)C5(C)C)cn4)CC3)cc2)c(-c2cn(C)c(=O)c3[nH]ccc23)c1 [Compound I-138]	500 to 2500 nM	< 500 nM	< 500 nM		< 500 nM
Cn1cc(-c2cc(C(C)(C)O)ccc2Oc2cccc(OCCC3CCN(c4ncc(C(=O)N[C@H]5C(C)(C)[C@H](Oc6ccc(C#N)c(Cl)c6)C5(C)C)cn4)CC3)c2F)c2cc[nH]c2c1=O [Compound I-142]	500 to 2500 nM	1500 to 3000 nM	< 500 nM	< 500 nM	
Cn1cc(-c2cc(C(C)(C)O)ccc2Oc2cccc(CCCN3CCN(c4ncc(C(=O)N[C@H]5C(C)(C)[C@H](Oc6ccc(C#N)c(Cl)c6)C5(C)C)cn4)CC3)c2F)c2cc[nH]c2c1=O [Compound I-143]	< 50 nM	< 500 nM	< 500 nM	< 500 nM	
Cn1cc(-c2cc(C(C)(C)O)ccc2Oc2cccc(CCOC3CCN(c4ncc(C(=O)N[C@H]5C(C)(C)[C@H](Oc6ccc(C#N)c(Cl)c6)C5(C)C)cn4)CC3)c2F)c2cc[nH]c2c1=O [Compound I-147]	< 50 nM	< 500 nM	< 500 nM		< 500 nM
Cn1cc(-c2cc(C(C)(C)O)ccc2Oc2cccc(OCCC3CCN(c4ncc(C(=O)N[C@H]5C(C)(C)[C@H](Oc6ccc(C#N)c(Cl)c6)C5(C)C)cn4)CC3)c2)c2cc[nH]c2c1=O [Compound I-156]	50 to 500 nM	> 3000 nM	< 500 nM		> 3000 nM
CCS(=O)(=O)c1ccc(Oc2cccc(OCCOC3CCN(c4ccc(C(=O)N[C@H]5C(C)(C)[C@H](Oc6ccc(C#N)c(Cl)c6)C5(C)C)cn4)CC3)c2F)c(-c2cn(C)c(=O)c3[nH]ccc23)c1 [Compound I-185]	< 50 nM	< 500 nM	< 500 nM	< 500 nM	
Cn1cc(-c2cc(C(C)(C)O)ccc2Oc2cccc(N3CC(OC4CCN(c5ncc(C(=O)N[C@H]6C(C)(C)[C@H](Oc7ccc(C#N)c(Cl)c7)C6(C)C)cn5)CC4)C3)c2F)c2cc[nH]c2c1=O [Compound I-190]	50 to 500 nM	500 to 1500 nM	< 500 nM		< 500 nM
Cc1ccc(CCCOC2CCN(c3ncc(C(=O)N[C@H]4C(C)(C)[C@H](Oc5ccc(C#N)c(Cl)c5)C4(C)C)cn3)CC2)cc1Oc1ccc(C(C)(C)O)cc1-c1cn(C)c(=O)c2[nH]ccc12 [Compound I-192]	50 to 500 nM	500 to 1500 nM	< 500 nM	500 to 1500 nM	
Cn1cc(-c2cc(C(C)(C)O)ccc2Oc2cccc(CCOC3CCN(c4ncc(C(=O)N[C@H]5C(C)(C)[C@H](Oc6ccc(C#N)c(Cl)c6)C5(C)C)cn4)CC3)c2)c2cc[nH]c2c1=O [Compound I-193]	< 50 nM	< 500 nM	< 500 nM		< 500 nM
Cn1cc(-c2cc(C(C)(C)O)ccc2Oc2ccc(CCOC3CCN(c4ncc(C(=O)N[C@H]5C(C)(C)[C@H](Oc6ccc(C#N)c(Cl)c6)C5(C)C)cn4)CC3)cc2)c2cc[nH]c2c1=O [Compound I-194]	< 50 nM	1500 to 3000 nM	< 500 nM	500 to 1500 nM	
Cc1ccc(CCCOC2CCN(c3ncc(C(=O)N[C@H]4C(C)(C)[C@H](Oc5ccc(C#N)c(Cl)c5)C4(C)C)cn3)CC2)c(C)c1Oc1ccc(C(C)(C)O)cc1-c1cn(C)c(=O)c2[nH]ccc12 [Compound I-195]	> 2500 nM	> 3000 nM	< 500 nM	> 3000 nM	
